Nine molecules from ChEMBL document CHEMBL2034842, “Synthesis, anti-Candida activity, and cytotoxicity of new (4-(4-iodophenyl)thiazol-2-yl)hydrazine derivatives” (Eur J Med Chem, 2012) can be followed below.

Converted amounts (≈) assume the structure as drawn. Some results are limits rather than exact numbers.

Holding throughout (assay type): functional
One assay relates to Escherichia coli. The assay is described as follows: Antibacterial activity against Escherichia coli after 18 to 22 hrs by […].
The subject of the next assay is Proteus vulgaris. The assay is described as follows: Antibacterial activity against Proteus vulgaris after 18 to 22 hrs by […].
The next assay deals with Klebsiella aerogenes. The assay is described as follows: Antibacterial activity against Enterobacter aerogenes after 18 to 22 hrs by […].
For another assay, the system named is Klebsiella pneumoniae. The assay is described as follows: Antibacterial activity against Klebsiella pneumoniae after 18 to 22 hrs by […].
The test system of a further assay is Staphylococcus aureus. The assay is described as follows: Antibacterial activity against Staphylococcus aureus after 18 to 22 hrs by […].
The next assay has as its system Staphylococcus warneri. The assay is described as follows: Antibacterial activity against Staphylococcus warneri after 18 to 22 hrs by […].
In the next assay the test system is Streptococcus pyogenes. The assay is described as follows: Antibacterial activity against Streptococcus pyogenes after 18 to 22 hrs by […].
In another assay the test system is Enterococcus faecalis. The assay is described as follows: Antibacterial activity against Enterococcus faecalis after 18 to 22 hrs by […].
The test system of a further assay is Candida albicans. The assay is described as follows: Antifungal activity against 10 strains of Candida albicans after 24 hrs by […].
Another assay has as its system Pichia kudriavzevii. The assay is described as follows: Antifungal activity against 3 strains of Candida krusei after 24 hrs by […].
A further assay has as its system Candida parapsilosis. The assay is described as follows: Antifungal activity against 4 strains of Candida parapsilosis after 24 hrs by […]. The settings on record: Lodderomyces parapsilosis.
The subject of another assay is [Candida] sake. The assay is described as follows: Antifungal activity against 2 strains of Candida sake after 24 hrs by […]. The settings on record: Fermentozyma sake.
The test system of a further assay is Nakaseomyces glabratus. The assay is described as follows: Antifungal activity against 4 strains of Candida glabrata after 24 hrs by […].
For another assay, the system named is Candida tropicalis. The assay is described as follows: Antifungal activity against 4 strains of Candida tropicalis after 24 hrs by […].

In the case of `C/C(=N\Nc1nc(-c2ccc(I)cc2)cs1)c1ccco1`, the minimum inhibitory concentration (MIC) (as a rule, the lowest concentration that inhibits growth of the organism) with Escherichia coli was above 128 µg/mL; against Proteus vulgaris, above 128 µg/mL; in the assay on Klebsiella aerogenes, above 128 µg/mL; in the assay with Klebsiella pneumoniae, above 128 µg/mL; against Staphylococcus aureus, 32 µg/mL (≈ 78.2 µM); against Staphylococcus warneri, 32 µg/mL (≈ 78.2 µM). Besides, the MIC was 2 µg/mL (≈ 4.89 µM) in the assay on Streptococcus pyogenes; 8 µg/mL (≈ 19.5 µM) against Enterococcus faecalis; 0.25 µg/mL (≈ 0.611 µM) in the assay on Candida albicans; 128 µg/mL (≈ 313 µM) in the assay with Pichia kudriavzevii; 2 µg/mL (≈ 4.89 µM) against Candida parapsilosis; 128 µg/mL (≈ 313 µM) in assay [Candida] sake. In addition, the MIC in the assay with Nakaseomyces glabratus amounted to 2 µg/mL (≈ 4.89 µM); in the assay on Candida tropicalis, 0.5 µg/mL (≈ 1.22 µM).
For `Ic1ccc(-c2csc(N/N=C/c3ccco3)n2)cc1`, the minimal inhibitory concentration (MIC) in the assay on Escherichia coli is 32 µg/mL (≈ 81 µM); against Proteus vulgaris, 16 µg/mL (≈ 40.5 µM); in the assay on Klebsiella aerogenes it was 32 µg/mL (≈ 81 µM); in the assay with Klebsiella pneumoniae it was 32 µg/mL (≈ 81 µM); in the assay on Staphylococcus aureus it was above 128 µg/mL; against Staphylococcus warneri, above 128 µg/mL. In addition, the MIC against Streptococcus pyogenes is 32 µg/mL (≈ 81 µM); in the assay on Enterococcus faecalis, 32 µg/mL (≈ 81 µM); with Candida albicans, 0.5 µg/mL (≈ 1.27 µM); against Pichia kudriavzevii, 64 µg/mL (≈ 162 µM); against Candida parapsilosis, 2 µg/mL (≈ 5.06 µM); in [Candida] sake, 64 µg/mL (≈ 162 µM). Moreover, the minimal inhibitory concentration (MIC) against Nakaseomyces glabratus amounted to 4 µg/mL (≈ 10.1 µM); against Candida tropicalis, 2 µg/mL (≈ 5.06 µM).
As to `CC1CCC/C(=N\Nc2nc(-c3ccc(I)cc3)cs2)C1` (stereo not given), the minimal inhibitory concentration (MIC) was above 128 µg/mL against Escherichia coli; above 128 µg/mL in the assay on Proteus vulgaris; above 128 µg/mL in the assay with Klebsiella aerogenes; above 128 µg/mL against Klebsiella pneumoniae; 32 µg/mL (≈ 77.8 µM) against Staphylococcus aureus; 4 µg/mL (≈ 9.72 µM) in the assay on Staphylococcus warneri. Also, the MIC came to 4 µg/mL (≈ 9.72 µM) in the assay with Streptococcus pyogenes; 8 µg/mL (≈ 19.4 µM) in the assay with Enterococcus faecalis; 2 µg/mL (≈ 4.86 µM) against Candida albicans; 128 µg/mL (≈ 311 µM) with Pichia kudriavzevii; 2 µg/mL (≈ 4.86 µM) in the assay on Candida parapsilosis; 128 µg/mL (≈ 311 µM) in [Candida] sake. Moreover, the values for the MIC with Nakaseomyces glabratus and with Candida tropicalis were 4 µg/mL (≈ 9.72 µM) and 2 µg/mL (≈ 4.86 µM), respectively.
For `C/C(=N\Nc1nc(-c2ccc(I)cc2)cs1)c1ccccn1`, the MIC in the assay on Escherichia coli was above 128 µg/mL; against Proteus vulgaris, above 128 µg/mL; against Klebsiella aerogenes it was above 128 µg/mL; in the assay on Klebsiella pneumoniae, 32 µg/mL (≈ 76.1 µM); with Staphylococcus aureus it was 32 µg/mL (≈ 76.1 µM); against Staphylococcus warneri it was above 128 µg/mL. In addition, the MIC in the assay on Streptococcus pyogenes was above 128 µg/mL; against Enterococcus faecalis, above 128 µg/mL; with Candida albicans, 0.25 µg/mL (≈ 0.595 µM); against Pichia kudriavzevii, 64 µg/mL (≈ 152 µM); in the assay on Candida parapsilosis, 2 µg/mL (≈ 4.76 µM); in assay [Candida] sake it was 64 µg/mL (≈ 152 µM). Also, the MIC was determined as 2 µg/mL (≈ 4.76 µM) with Nakaseomyces glabratus and 0.5 µg/mL (≈ 1.19 µM) with Candida tropicalis.
Turning to `Ic1ccc(-c2csc(N/N=C/c3ccc4c(c3)OCO4)n2)cc1`, the minimal inhibitory concentration (MIC) is above 128 µg/mL in the assay with Escherichia coli; above 128 µg/mL in the assay on Proteus vulgaris; above 128 µg/mL against Klebsiella aerogenes; above 128 µg/mL with Klebsiella pneumoniae; 32 µg/mL (≈ 71.2 µM) with Staphylococcus aureus; 32 µg/mL (≈ 71.2 µM) with Staphylococcus warneri. For the same molecule, the minimal inhibitory concentration (MIC) in the assay on Streptococcus pyogenes was above 128 µg/mL; in the assay with Enterococcus faecalis, 32 µg/mL (≈ 71.2 µM); with Candida albicans, 2 µg/mL (≈ 4.45 µM); against Pichia kudriavzevii, 2 µg/mL (≈ 4.45 µM); in the assay with Candida parapsilosis it was 2 µg/mL (≈ 4.45 µM); in assay [Candida] sake, 4 µg/mL (≈ 8.9 µM). For the same molecule, the values for the minimum inhibitory concentration (MIC) with Nakaseomyces glabratus and with Candida tropicalis were 4 µg/mL (≈ 8.9 µM) and 2 µg/mL (≈ 4.45 µM), respectively.
Take `Ic1ccc(-c2csc(N/N=C/c3cccnc3)n2)cc1`: the MIC with Escherichia coli is 16 µg/mL (≈ 39.4 µM); against Proteus vulgaris, above 128 µg/mL; with Klebsiella aerogenes, 16 µg/mL (≈ 39.4 µM); in the assay with Klebsiella pneumoniae, above 128 µg/mL; in the assay with Staphylococcus aureus it was 32 µg/mL (≈ 78.8 µM); against Staphylococcus warneri, above 128 µg/mL. Besides, the MIC was 32 µg/mL (≈ 78.8 µM) against Streptococcus pyogenes; 32 µg/mL (≈ 78.8 µM) against Enterococcus faecalis; 2 µg/mL (≈ 4.92 µM) in the assay with Candida albicans; 64 µg/mL (≈ 158 µM) against Pichia kudriavzevii; 2 µg/mL (≈ 4.92 µM) against Candida parapsilosis; 64 µg/mL (≈ 158 µM) in assay [Candida] sake. For the same molecule, the MIC was determined as 4 µg/mL (≈ 9.85 µM) against Nakaseomyces glabratus and 2 µg/mL (≈ 4.92 µM) in the assay on Candida tropicalis.
For the molecule `Ic1ccc(-c2csc(N/N=C/c3c[nH]c4ccccc34)n2)cc1`, the minimal inhibitory concentration (MIC) against Escherichia coli is above 128 µg/mL; in the assay with Proteus vulgaris, above 128 µg/mL; against Klebsiella aerogenes, above 128 µg/mL; in the assay with Klebsiella pneumoniae it was above 128 µg/mL; against Staphylococcus aureus, 32 µg/mL (≈ 72 µM); in the assay on Staphylococcus warneri, 32 µg/mL (≈ 72 µM). Also, the minimal inhibitory concentration (MIC) came to 4 µg/mL (≈ 9 µM) in the assay on Streptococcus pyogenes; 4 µg/mL (≈ 9 µM) in the assay on Enterococcus faecalis; 0.5 µg/mL (≈ 1.13 µM) in the assay with Candida albicans; 4 µg/mL (≈ 9 µM) against Pichia kudriavzevii; 0.5 µg/mL (≈ 1.13 µM) with Candida parapsilosis; 4 µg/mL (≈ 9 µM) in [Candida] sake. Besides, the MIC against Nakaseomyces glabratus was determined as 4 µg/mL (≈ 9 µM); in the assay with Candida tropicalis, 2 µg/mL (≈ 4.5 µM).
As to `COC1=CC(=O)C[C@@H](C)[C@]12Oc1c(Cl)c(OC)cc(OC)c1C2=O` [GRISEOFULVIN], the MIC (against Candida albicans; in the assay with Pichia kudriavzevii; against Candida parapsilosis; in assay [Candida] sake; in the assay on Nakaseomyces glabratus; against Candida tropicalis) was 8 µg/mL (≈ 22.7 µM) throughout.
On to `OC(Cn1cncn1)(Cn1cncn1)c1ccc(F)cc1F` [FLUCONAZOLE], for which the MIC (in the assay on Candida albicans; against Pichia kudriavzevii; against Candida parapsilosis; in assay [Candida] sake; in the assay with Nakaseomyces glabratus; against Candida tropicalis) was 4 µg/mL (≈ 13.1 µM) throughout.
